Values of other authors, collected in patent publication US20030170847A1, “Genes involved in isoprenoid compound production” (priority 2001, published 2003).

How the values were obtained:
[1] = system: nonphotosynthetic bacterial CrtY-type of lycopene cyclases; settings: Cunningham et al., The Plant Cell 1994
[2] = system: CrtL-type of lycopene cyclases; settings: Cunningham et al., The Plant Cell 1994

Row | SMILES | inhibition of CrtY-type of lycopene cyclases [1] | inhibition of CrtL-type of lycopene cyclases [2]
1 | CCN(CC)CCSc1ccc(Cl)cc1.Cl [CPTA, 2-(4-chlorophenylthio)-triethylamine hydrochloride] | not | specifically inhibit
2 | CCN(CC)CCOc1ccc(C)cc1.Cl [MPTA, 2-(4-methylphenoxy)-triethylamine hydrochloride] | not | specifically inhibit
